# From patent publication US9352010B2, “Treatment of HIV-1 infection and AIDS” (The J. David Gladstone Institutes, priority 2011, dated 2016)
# Assays:
# [1] = test system: human monocytes; settings: LPS and ATP; cited from earlier work
# [2] = test system: CFSE-labeled CD4 T-cells; type: cell-based, human; settings: for indirect killing (loss) of resting CFSE-labeled CD4 T-cells: NL4-3-infected effector cells
# Method: (A) Experimental strategy to assess indirect cell killing in HIV-1-infected human lymphoid cultures. Fresh human tonsil tissue from a single donor is processed into HLAC, and then separated into two fractions. One fraction is challenged with HIV-1 and cultured for 6 days, allowing viral spread. On day 5, the uninfected fraction is treated with AZT (5 μM) and labeled with CFSE (1 μM). On day 6, the infected and CFSE-labeled (i.e., uninfected) cultures are mixed and co-cultured in the presence of AZT. […] After 6 days of co-culturing, the number of viable CFSE-positive cells is determined by flow cytometry. (B) Flow cytometry analysis of the mixed HLACs. Indirect killing is determined by gating on live CFSE-positive cells in the mixed cultures. Effector cells are either infected or uninfected cells. […] CFSE-labeled cells mixed with uninfected or infected cells were cultured in the presence of 5 μM AZT alone or together with 250 nM AMD3100. Data represent live CFSE-positive cells 6 days after co-culture with infected or uninfected effector cells. […] The absolute numbers of viable CFSE-positive CD4 and CD8 T-cells and B cells were determined. Percentages are normalized to the number of viable CFSE-positive cells co-cultured with uninfected cells in the presence of AZT, as depicted by (*). Error bars represent standard deviations of three samples from the same donor. […] See also FIG. 3.
# (§1) Human tonsil or splenic tissues from routine tonsillectomies were obtained from the National Disease Research Interchange and the Cooperative Human Tissue Network and processed as previously described (Jekle et al., 2003, J Virol 77:5846-5854). In brief, tonsils or spleen were minced, passed through a 40-μm cell strainer, and cultured in 96-well U-bottomed polystyrene plates (2×10^6 cells/well) in medium (200 μl/well) consisting of RPMI 1640 supplemented with 15% heat-inactivated fetal bovine serum, 100 μg/ml gentamicin, 200 μg/ml ampicillin, 1 mM sodium pyruvate, 1% nonessential amino acids (Mediatech), 2 mM L-glutamine, and 1% fungizone (Invitrogen). All HIV-1 infections were carried out with 20-50 ng of HIV-1 p24^gag. Cells were incubated with the virus for 12-16 h, washed extensively, and supplemented with fresh medium. After day 5, infections were monitored by measuring p24gag levels in the culture medium using a FLAQ assay (Hayden et al., 2003, AIDS 17:629-631). Infected and uninfected cultures were manipulated as described for individual experiments. In “indirect killing” assays, unless otherwise stated, drugs were used at the following concentrations: 5 μM AZT; 250 nM AMD3100; 10 μg/ml T20; 100 nM Efavirenz; 1 μM Nevirapine; 30 μM Raltegravir; 60 μM 118-D-24; 5 μM Amprenavir; 5 μM Saquinavir; 5 μM Indinavir. CFSE-labeled cells were activated with PHA (5 μg/ml) and IL-2 (20 ng/ml) 2 days before mixing with effector cells.
# Uninfected cells (5×10^6/ml) were labeled with 1 μM CFSE (Molecular Probes C1157), treated with 5 μM AZT for 24 h, and co-cultured with effector cells. CFSE readily diffuses into cells, where intracellular esterases cleave the acetate groups, converting it to a fluorescent, membrane-impermeable dye.
# [3] = test system: SupT1 CD4 T leukemic cells; experiment: Syncytia formation in NL4-3-infected SupT1 cells; type: cell-based; settings: 5 μM protease inhibitor, 2.5 days
# Method: (A) The spinoculation procedure. (B) Flow cytometry of viable CD4 versus CD8-T-cells in HLAC three days after spinoculation in the presence of the indicated drugs. Data represent live-gated cells, based on the forward-scatter versus side-scatter profile of the complete culture. Of note, apoptotic cells were included in the analysis of caspases activity and cytokine expression (FIG. 10E, F). Drugs concentrations: AZT 5 μM; Efavirenz 100 nM; AMD3100 250 nM; T20 10 μg/ml. The data are representative results of six independent experiments with six different donors. […] (C) Highly permissive SupT1 CD4 T leukemic cells were infected with NL4-3 and cultivated for 3 days to allow substantial infection but not syncytia formation. […] After 2.5 days of additional culture, the extent of syncytia formation in each sample was evaluated by light microscopy. […] Results are representative of three independent experiments.
# [4] = test system: IL-1β; experiment: Release of 17-kDa IL-1β from isolated tonsillar CD4 T-cells (ionophore stimulus); type: cell-based, human; settings: nigericin 10 μM
# Method: For stimulating the processing and secretion of IL-1, CD4 T-cells were isolated from HLACs by positive selection and treated with 0.5 μM PMA ([…], Calbiochem Cat. #524400) for 6 hours at 37° C. PMA induces large intracellular stores of the 35 kDa pro-IL-1β. Cells were then washed with PBS and treated with 10 μM nigericin (Sigma, Cat. # N7143) overnight at 37° C. The potassium ionophore nigericin mediates an elecroneutral exchange of intracellular K^+ ions for extracellular protons, providing a second inflammatory stimulus, which results in the maturation and release of the bioactive 17 kDa IL-1β(Perregaux et al., 1992, J Immunol 149:1294-1303; Perregaux and Gabel, 1994, J Biol Chem 269:15195-15203).
# Isolated tonsillar CD4 T-cells were treated overnight with nigericin (10 μM) to provide a second inflammatory stimulus, resulting in maturation and release of bioactive 17-kDa IL-1β. Supernatants from the cell cultures were subjected to SDS-PAGE and immunoblotting. 17-kDa IL-1β was released after treatment with nigericin, but not with calcium ionophore A23187 or the nonspecific cation ionophore monensin. Thus, while these cells are primed, they must receive the appropriate proinflammatory signal for pro-IL-1β processing and release. […]
# [5] = test system: CFSE-labeled spleen CD4 T-cells; experiment: Indirect killing assay with CFSE-labeled human spleen cells; type: cell-based; settings: HIV-infected spleen HLAC effectors
# Method: (B and C) Fresh human spleen from a single donor were processed into HLAC and assessed in indirect cell killing assay as described in FIG. 2A. Effector spleen HLAC were stimulated with PHA and IL-2 48 hours before mixing, but not during co-culturing with CFSE-labeled cells. Non-activated resting CFSE-labeled spleen cells were co-cultured with NL4-3-infected or uninfected effector cells in the presence or absence of the following drugs, AZT (5 μM), AMD3100 (250 nM), Efavirenz (100 nM), or Raltegravir (30 μM), as indicated. […] Percentages were normalized to the number of viable CFSE-positive spleen CD4 T-cells co-cultured with uninfected effectors in the presence of AZT, as depicted by (*). Error bars represent standard error of the mean for three experiments performed with three different spleen and tonsil donors.
# as §1
# Uninfected cells (5×10^6/ml) were labeled with 1 μM CFSE (Molecular Probes C1157), treated with 5 μM AZT for 24 h, and co-cultured with effector cells. CFSE readily diffuses into cells, where intracellular esterases cleave the acetate groups, converting it to a fluorescent, membrane-impermeable dye. […] To quantify indirect killing, mixed (CFSE-labeled+effector) cultures were washed in FACS buffer (PBS supplemented with 2 mM EDTA and 2% fetal bovine serum), stained with PE-conjugated anti-CD4, PerCP-conjugated anti-CD19, and APC-conjugated anti-CD8 (all from BD Pharmingen) and fixed in 1% paraformaldehyde. To determine the absolute numbers of the viable CFSE-labeled cells, a standard number of fluorescent beads (Flow-Count Fluorospheres, Beckman Coulter) was added to each cell-suspension sample before data acquisition. Data were collected on a FACS Calibur (BD Biosciences) and analyzed with Flowjo software (Treestar). The level of indirect killing was defined by sequential gating beginning with forward scatter versus side scatter to select live lymphocytes, subgating on the CFSE-positive population, and calculating the numbers of CD4 or CD8 T or B cells, divided by the number of fluorescent beads acquired.
# [6] = test system: HIV-1 reverse transcription products; experiment: Taqman QPCR of HIV-1 reverse transcription products in infected CD4 T-cells; type: cell-based, human; settings: 16 hours after infection with NL4-3, versus untreated cells
# Method: Fresh HLACs were washed once with PBS and resuspended with PBS containing 5 mM EDTA and 2% fetal bovine serum. CD4 T-cells were isolated from HLACs by positive selection on CD4 microbeads (Miltenyi) and cultured overnight in 96-well U-bottomed plates (1×10^6 cells/well) as described above, and AZT was added to the indicated cell samples. Next day, the rest of the drugs were added to the indicated cell samples at concentrations as described above. Cells were chilled on ice for 15 min and DNAse-treated (Ambion, 60 U/ml, 1 hour, 37° C.) NL4-3 or Δvif NL4-3 virions (200 ng/well) were added. After a 1 hour incubation with virions on ice, cells were spinoculated at 1200 g for 2 hours at 4° C., incubated at 37° C. for 2 hours, washed three times with cold PBS, and resuspended in fresh RPMI with the indicated drugs. Eight or 16 hours after spinoculation, cell pellets were frozen at −80° C. Total DNA was purified from each cell pellet with a DNAse kit (Qiagen). Primer and probe sequences used to detect reverse transcription products are provided herein. QPCR reactions were performed in triplicates in TaqMan universal PCR master mix using each primer at 3.75 μM and probe at 2.5 μM. After 15 minutes at 95° C., reactions underwent 50 cycles of 15 sec at 95° C. followed by 1 min at 60° C. in an ABI Prism 7900HT (Applied Biosystems).
# Next the status of HIV-1 reverse transcription in tonsillar CD4 T-cells after infection was examined. […] Taqman-based quantitative real-time PCR (QPCR) was used to quantify the synthesis of reverse transcription products in isolated CD4 T-cells from HLAC 16 hours after infection with NL4-3. Specific QPCR primers and probes were designed (Table 1) to monitor sequential steps in reverse transcription including generation of strong-stop DNA, first template exchange (Nef), and DNA strand elongation (Env) (FIG. 10A)
# [7] = test system: ISRE-GFP H35 cells; experiment: ISRE-GFP H35 reporter cells; type: cell-based, rat; settings: 1 μg transfected
# Method: Hepatocyte-derived reporter ISRE-GFP H35 cells were maintained as previously described (King et al., 2007, Lab Chip 7:77-85; Patel et al., 2009, Proc Natl Acad Sci USA 106:12867-12872). For microscopic imaging, ISRE-GFP reporter H35 cells were cultured on 35 mm glass bottom culture dishes (MatTeck) and were treated with AZT (5 μM), Efavirenz (100 nM), or Raltegravir (30 μM) 12 hours before infection. Cells were then infected with 2 μg/ml of replication competent VSV-G pseudotyped NL4-3. After 48 hours incubation at 37° C., cells were fixed in 2% paraformaldehyde at 25° C. for 1 hour, washed with PBS and stained with 10 μg/ml Hoechst 33342 (Invitrogen) and 1 μg/ml 7-AAD (eBioscience) for 15 min at 25° C. Cells were washed 3 times with PBS and were analyzed with an Axio observer Z1 microscope (Zeiss) equipped with an EC Plan NEOFLUAR 10×/0.3 PHM27 objective, filter sets 38HE, 45, and 49, and an Axiocam MRM REV 3.
compound,measurement,setting,value
"CC(C)c1cc(Cl)cc(C(C)C)c1NC(=O)NS(=O)(=O)c1cccc(C(C)O)c1 (centres unmarked) [CP-412,245]",post-translational processing and secretion of IL-1β,[1],inhibited the post-translational processing and secretion of IL-1β
"CC(C)c1cc(Cl)cc(C(C)C)c1NC(=O)NS(=O)(=O)c1cccc(C(C)(C)O)c1 [CP-424,174]",post-translational processing and secretion of IL-1β,[1],inhibited the post-translational processing and secretion of IL-1β
CC(C)(C)NC(=O)[C@@H]1CN(Cc2cccnc2)CCN1C[C@@H](O)C[C@@H](Cc1ccccc1)C(=O)N[C@H]1c2ccccc2C[C@H]1O [Indinavir],indirect killing (loss) of resting CFSE-labeled CD4 T-cells,[2],inhibit indirect killing
same,syncytia formation / cell-cell fusion,[3],do not block syncytia formation
CC(C)(C)NC(=O)[C@@H]1C[C@@H]2CCCC[C@@H]2CN1C[C@@H](O)[C@H](Cc1ccccc1)NC(=O)[C@H](CC(N)=O)NC(=O)c1ccc2ccccc2n1 [Saquinavir],indirect killing (loss) of resting CFSE-labeled CD4 T-cells,[2],inhibit indirect killing
same,syncytia formation / cell-cell fusion,[3],do not block syncytia formation
Cc1ccc(-c2ccc3c(c2)C=C(C(=O)Nc2ccc(C[N+](C)(C)C4CCOCC4)cc2)CCC3)cc1.[Cl-] [TAK779],indirect killing of CFSE-labeled CD4 T-cells,[2]; WEAU 16-8 (R5/X4)-infected effector cells,had no effect
CC(NC(=O)[C@H](Cc1ccccc1)NC(=O)OCc1ccccc1)C(=O)CF (some centres unmarked) [Z-FA-FMK],death of abortively infected CD4 T-cells with caspase inhibitors,"[2]; 20 μM caspase inhibitor, AZT 5 μM",persisted
COC(=O)C[C@H](NC(=O)[C@H](C)NC(=O)[C@@H](NC(=O)[C@H](Cc1ccc(O)cc1)NC(=O)OCc1ccccc1)C(C)C)C(=O)CF [Z-YVAD],nigericin-induced IL-1β release after pre-treatment with caspase inhibitor,[4],blocked
Cc1ccnc2c1NC(=O)c1cccnc1N2C1CC1 [nevirapine],indirect killing (loss) of resting CFSE-labeled CD4 T-cells,[2],blocked indirect killing of resting CD4 T-cells as efficiently as AMD3100
Cc1nnc(C(=O)NC(C)(C)c2nc(C(=O)NCc3ccc(F)cc3)c(O)c(=O)n2C)o1 [raltegravir],loss of CFSE-labeled spleen CD4 T-cells,[5],did not prevent CD4 T-cell killing
same,reverse transcription products corresponding to strong-stop DNA,[6],similar
same,indirect killing (loss) of resting CFSE-labeled CD4 T-cells,[2],did not prevent abortive infection killing
poly(I:C),ISRE-GFP reporter activation by transfected nucleic acid,[7],elicited a comparable ISRE-GFP response
